Where “and” joins values, the source holds several entries; their conditions need not be identical. Equal entries are not always repeated. Entries after “also recorded” stand apart in the source; their conditions may differ. Where two headings read alike, the source gives them in different places.
How the values were obtained:
[1] = 1-month GLP toxicity study in dogs; format: in vivo; conditions: Beagle, in vivo, dog; for AUC(0-t) / Cmax: po, 3 mg/kg; for AUC(0-t): read-out: AUC0-24 h at NOAEL; for Cmax: read-out: Cmax at NOAEL
Description: (§1) The type of study plan was reviewed and agreed by the Laboratory Animal Welfare Officer and the Animal Ethical Committee (officially known as Dierexperimentencommissie (DEC) Charles River Den Bosch), as required by the Dutch Act on Animal Experimentation (February 1997). Both rat and dog studies were performed in AALAC accredited Charles River Laboratories in the Netherlands. Studies in rats were conducted with 0, 25, 100, and 400 mg/kg per day (n = 10/sex/group) for 1 month. An additional 5 animals/sex in vehicle and high dose were allowed to continue for a 1-month treatment-free recovery period. Studies in dogs were conducted with 0, 3, 10, and 30 mg/kg per day (n = 4/sex/group) for 1 month. A treatment-free recovery period of 1 month (additional 2 dogs/sex/group) was included for both vehicle controls and high dose groups. […] Rats and dogs were examined for mortality, clinical signs, ophthalmoscopic changes, body weight, food consumption, hematology, clinical chemistry, anatomic pathology, and toxicokinetics. In addition, dogs were examined for electrocardiographic changes. Rats and dogs were also assessed for reversal of any effects following a 1-month recovery period. These studies were conducted in compliance with good laboratory practice (GLP) regulations.

Beagle dogs = test: 1-month GLP toxicity study in dogs; format: in vivo; conditions: dog
Description: as §1

ERα = biological target: T1, ERα (Homo sapiens, UniProt P03372); test: nuclear receptor cellular GAL4 reporter assay; format: cell-based; conditions: agonist and antagonist mode; read-out: potency in agonist and antagonist mode
T1 construct: expressed in transfected cells
T1 sequence (P03372 whole entry, the tested form may be a part): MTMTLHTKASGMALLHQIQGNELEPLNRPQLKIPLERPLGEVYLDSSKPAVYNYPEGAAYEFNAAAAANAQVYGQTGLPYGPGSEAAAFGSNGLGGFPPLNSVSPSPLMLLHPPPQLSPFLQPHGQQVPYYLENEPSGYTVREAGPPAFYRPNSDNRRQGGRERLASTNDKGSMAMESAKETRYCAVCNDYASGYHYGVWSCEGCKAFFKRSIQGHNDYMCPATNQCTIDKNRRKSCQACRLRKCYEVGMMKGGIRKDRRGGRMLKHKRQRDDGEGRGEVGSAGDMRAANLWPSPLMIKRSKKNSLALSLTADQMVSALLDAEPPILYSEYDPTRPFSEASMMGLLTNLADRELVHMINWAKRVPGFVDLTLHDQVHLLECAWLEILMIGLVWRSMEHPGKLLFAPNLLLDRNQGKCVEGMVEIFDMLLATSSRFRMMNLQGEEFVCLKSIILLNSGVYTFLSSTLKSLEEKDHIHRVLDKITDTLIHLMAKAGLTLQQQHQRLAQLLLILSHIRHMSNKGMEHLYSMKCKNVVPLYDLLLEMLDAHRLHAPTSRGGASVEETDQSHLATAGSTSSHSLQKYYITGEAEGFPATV

Y2 (h) = biological target: T2, Y2 (h) (Homo sapiens, UniProt P49146); test: Cerep panel; format: binding
T2 construct: purchased Cerep (receptors, ion channels, transporters); Eurofins Panlabs (kinases)
T2 sequence (P49146 whole entry): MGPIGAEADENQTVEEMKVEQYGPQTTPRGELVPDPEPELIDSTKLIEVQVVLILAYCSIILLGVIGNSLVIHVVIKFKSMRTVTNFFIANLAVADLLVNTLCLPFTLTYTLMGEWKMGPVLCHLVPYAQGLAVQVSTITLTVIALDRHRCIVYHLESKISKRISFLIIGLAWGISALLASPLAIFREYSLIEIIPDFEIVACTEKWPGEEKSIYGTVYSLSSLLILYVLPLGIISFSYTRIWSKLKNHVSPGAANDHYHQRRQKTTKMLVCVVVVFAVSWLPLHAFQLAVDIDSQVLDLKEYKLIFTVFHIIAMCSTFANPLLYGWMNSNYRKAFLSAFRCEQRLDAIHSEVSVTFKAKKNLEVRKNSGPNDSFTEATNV
Description: (§2) A panel of 52 different receptors, ion channels and transporters was tested by Cerep, Inc. (Redmond, WA).

CCR1 (h) = biological target: T3, CCR1 (h) (Homo sapiens, UniProt P32246); test: Cerep panel; format: binding
T3 construct: purchased Cerep (receptors, ion channels, transporters); Eurofins Panlabs (kinases)
T3 sequence (P32246 whole entry): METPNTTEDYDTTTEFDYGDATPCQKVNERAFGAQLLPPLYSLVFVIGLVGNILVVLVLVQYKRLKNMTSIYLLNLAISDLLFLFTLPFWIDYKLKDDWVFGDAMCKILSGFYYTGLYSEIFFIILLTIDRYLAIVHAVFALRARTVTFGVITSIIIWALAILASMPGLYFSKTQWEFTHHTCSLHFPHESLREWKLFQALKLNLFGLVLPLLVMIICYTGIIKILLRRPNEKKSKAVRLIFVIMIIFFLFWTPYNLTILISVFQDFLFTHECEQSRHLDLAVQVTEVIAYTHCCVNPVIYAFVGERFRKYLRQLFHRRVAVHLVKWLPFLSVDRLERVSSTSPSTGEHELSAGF
Description: as §2

[2] = tested on: human CD4+ T cells under Th1 conditions; test: in vitro human Th1 differentiation, IFNγ production
Description: On day 4, supernatants were analyzed for IL-17A, IL-17F, IL-22 and IFNγ production.
Total CD4^+ T cells were isolated from peripheral blood mononuclear cells (PBMCs) of healthy donors using a CD4^+ T cell Isolation Kit II (Miltenyl Biotec, Auburn, CA), following the manufacturer’s instructions.
In vitro human Th17 and Th1 differentiation
Total CD4+ T cells were isolated from the peripheral blood mononuclear cells (PBMCs) of healthy donors
using a CD4+ T cell Isolation Kit II (Miltenyl Biotec, Auburn, CA), following the manufacturer’s
instructions. Isolated T cells were resuspended in culture medium and added to a 96-well plate at 1×105
beads (prepared using human T cell activation/expansion kit, Miltenyi Biotec) at final concentration of
3x10^6/mL, and cocktail for either Th17 differentiation (10 µg/mL anti-IL-4, 10 µg/mL anti-IFN, 10 ng/mL
IL-1β, 10 ng/mL IL-23, 50 ng/mL IL-6, 3 ng/mL TGFβ and 20 U/mL IL-2), or for Th1 differentiation (10
µg/mL anti-IL-4, 10 ng/mL IL-12, and 20 U/mL IL-2). Cells were cultured at 37°C and 5% CO2 for 3 days.
Supernatants were assayed for accumulated cytokines using MSD multi-spot assay (Meso Scale
Discovery, Rockville, MD) or R&D ELISA kit.

VIP1 (h) (VPAC1) = biological target: T4, VIP1 (h) (VPAC1) (Homo sapiens, UniProt P32241); test: Cerep panel; format: binding
T4 construct: purchased Cerep (receptors, ion channels, transporters); Eurofins Panlabs (kinases)
T4 sequence (P32241 31-457): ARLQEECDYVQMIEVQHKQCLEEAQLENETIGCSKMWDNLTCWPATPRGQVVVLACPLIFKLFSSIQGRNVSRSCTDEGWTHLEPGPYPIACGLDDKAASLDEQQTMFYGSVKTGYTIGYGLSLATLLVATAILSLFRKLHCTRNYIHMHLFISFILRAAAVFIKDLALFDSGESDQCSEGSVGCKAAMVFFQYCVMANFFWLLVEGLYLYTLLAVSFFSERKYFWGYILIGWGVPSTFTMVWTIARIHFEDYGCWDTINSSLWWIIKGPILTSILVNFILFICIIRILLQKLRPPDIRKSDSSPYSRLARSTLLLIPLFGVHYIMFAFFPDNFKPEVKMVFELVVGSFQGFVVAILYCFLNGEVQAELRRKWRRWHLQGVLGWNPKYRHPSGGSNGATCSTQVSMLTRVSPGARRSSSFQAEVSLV
Description: as §2

MAPK1(h) = biological target: T5, MAPK1(h) (Homo sapiens, UniProt P27361); test: Kinase panel; format: biochemical
T5 construct: purchased Cerep (receptors, ion channels, transporters); Eurofins Panlabs (kinases)
T5 sequence (P27361 whole entry): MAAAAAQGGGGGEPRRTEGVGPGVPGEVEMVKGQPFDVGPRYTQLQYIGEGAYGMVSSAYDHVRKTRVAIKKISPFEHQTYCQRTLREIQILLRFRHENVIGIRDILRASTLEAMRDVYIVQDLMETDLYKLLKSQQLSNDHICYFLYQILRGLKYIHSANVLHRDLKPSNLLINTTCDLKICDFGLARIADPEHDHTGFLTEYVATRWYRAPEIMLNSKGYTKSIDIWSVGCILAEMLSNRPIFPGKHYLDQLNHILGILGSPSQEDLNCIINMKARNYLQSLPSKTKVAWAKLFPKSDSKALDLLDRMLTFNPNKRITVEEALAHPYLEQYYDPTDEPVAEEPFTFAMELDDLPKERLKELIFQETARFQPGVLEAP
Description: (§3) Kinase selectivity was conducted by Eurofins Panlabs Inc (St Charles, MO).

5HT1A = 5HT1A (Homo sapiens, UniProt P08908); test: GPCR panel, cAMP or calcium FLIPR assays; format: cell-based
Sequence of 5HT1A (P08908 whole entry, species assumed): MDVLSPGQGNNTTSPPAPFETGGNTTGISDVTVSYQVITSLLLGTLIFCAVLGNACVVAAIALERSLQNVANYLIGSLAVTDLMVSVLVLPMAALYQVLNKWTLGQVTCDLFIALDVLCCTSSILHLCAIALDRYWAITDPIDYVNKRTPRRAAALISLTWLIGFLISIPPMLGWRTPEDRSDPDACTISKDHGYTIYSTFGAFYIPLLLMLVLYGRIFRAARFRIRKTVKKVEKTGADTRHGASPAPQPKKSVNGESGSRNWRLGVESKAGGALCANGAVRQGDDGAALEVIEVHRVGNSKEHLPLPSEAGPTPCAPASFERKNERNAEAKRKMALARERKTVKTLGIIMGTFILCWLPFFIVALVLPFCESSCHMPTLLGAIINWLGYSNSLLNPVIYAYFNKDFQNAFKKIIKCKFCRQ
Description: 28 GPCRs were evaluated through cAMP or calcium FLIPR assays[67]. A panel of 52 different receptors, ion channels and transporters was tested by Cerep, Inc. (Redmond, WA).

5HT2C = 5HT2C (Homo sapiens, UniProt P28335); test: GPCR panel, cAMP or calcium FLIPR assays; format: cell-based
Sequence of 5HT2C (P28335 33-458, species assumed): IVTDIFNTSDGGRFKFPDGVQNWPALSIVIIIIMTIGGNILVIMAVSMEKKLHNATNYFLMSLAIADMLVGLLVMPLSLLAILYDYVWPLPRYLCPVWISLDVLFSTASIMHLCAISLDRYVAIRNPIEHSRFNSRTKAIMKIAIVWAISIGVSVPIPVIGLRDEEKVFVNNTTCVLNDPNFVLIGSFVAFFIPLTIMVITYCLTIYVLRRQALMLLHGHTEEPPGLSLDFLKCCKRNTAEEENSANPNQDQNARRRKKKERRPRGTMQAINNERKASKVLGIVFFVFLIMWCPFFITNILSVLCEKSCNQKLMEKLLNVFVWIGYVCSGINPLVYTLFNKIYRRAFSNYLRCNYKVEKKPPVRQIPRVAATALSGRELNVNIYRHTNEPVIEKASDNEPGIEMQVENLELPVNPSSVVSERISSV
Description: 28 GPCRs were evaluated through cAMP or calcium FLIPR assays[67].

CXCR2 (h) (IL-8B) = biological target: T6, CXCR2 (h) (IL-8B) (Homo sapiens, UniProt P25025); test: Cerep panel; format: binding
T6 construct: purchased Cerep (receptors, ion channels, transporters); Eurofins Panlabs (kinases)
T6 sequence (P25025 whole entry): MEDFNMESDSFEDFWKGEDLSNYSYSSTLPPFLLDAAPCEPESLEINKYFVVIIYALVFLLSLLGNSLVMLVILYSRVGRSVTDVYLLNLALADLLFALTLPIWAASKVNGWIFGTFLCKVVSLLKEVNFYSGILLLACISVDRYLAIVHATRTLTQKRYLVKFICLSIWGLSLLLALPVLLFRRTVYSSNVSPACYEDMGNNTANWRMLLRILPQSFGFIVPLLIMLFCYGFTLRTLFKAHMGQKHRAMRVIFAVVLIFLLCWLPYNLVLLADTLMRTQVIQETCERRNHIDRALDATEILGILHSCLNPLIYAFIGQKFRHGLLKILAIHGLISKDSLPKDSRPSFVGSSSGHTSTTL
Description: as §2

[3] = mouse PK/PD model, plasma exposure; format: in vivo; conditions: female, C57B6, mouse, 100 mg/kg oral
Excerpt: Compound concentrations are also listed as undiluted (measured) and diluted (extrapolated) in Supplementary Table S2.

TrkC(h) = biological target: T7, TrkC(h) (Homo sapiens, UniProt Q16288); test: Kinase panel; format: biochemical
T7 construct: purchased Cerep (receptors, ion channels, transporters); Eurofins Panlabs (kinases)
T7 sequence (Q16288 32-839): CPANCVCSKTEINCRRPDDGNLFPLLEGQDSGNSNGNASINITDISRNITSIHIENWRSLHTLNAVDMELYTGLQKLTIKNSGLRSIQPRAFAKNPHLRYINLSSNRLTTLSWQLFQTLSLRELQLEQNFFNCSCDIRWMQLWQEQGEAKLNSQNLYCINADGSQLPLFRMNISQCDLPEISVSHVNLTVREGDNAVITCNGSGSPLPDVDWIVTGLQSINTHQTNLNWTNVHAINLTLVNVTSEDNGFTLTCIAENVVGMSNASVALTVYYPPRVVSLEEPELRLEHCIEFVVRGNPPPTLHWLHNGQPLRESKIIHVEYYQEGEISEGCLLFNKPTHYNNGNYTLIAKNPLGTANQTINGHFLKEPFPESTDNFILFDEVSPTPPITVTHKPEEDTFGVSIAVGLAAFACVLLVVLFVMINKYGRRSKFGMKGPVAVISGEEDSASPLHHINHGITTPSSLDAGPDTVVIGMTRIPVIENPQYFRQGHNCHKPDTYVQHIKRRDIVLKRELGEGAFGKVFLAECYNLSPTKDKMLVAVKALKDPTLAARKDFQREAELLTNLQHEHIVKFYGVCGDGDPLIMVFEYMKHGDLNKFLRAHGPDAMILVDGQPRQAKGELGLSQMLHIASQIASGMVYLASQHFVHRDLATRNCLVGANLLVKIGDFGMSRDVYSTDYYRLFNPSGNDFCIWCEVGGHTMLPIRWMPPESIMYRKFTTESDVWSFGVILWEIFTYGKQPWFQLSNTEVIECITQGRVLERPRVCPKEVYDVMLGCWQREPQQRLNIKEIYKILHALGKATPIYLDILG
Description: as §3

5-HT1B = biological target: T8, 5-HT1B (Rattus norvegicus, UniProt P28564); test: Cerep panel; format: binding
T8 construct: purchased Cerep (receptors, ion channels, transporters); Eurofins Panlabs (kinases)
T8 sequence (P28564 whole entry): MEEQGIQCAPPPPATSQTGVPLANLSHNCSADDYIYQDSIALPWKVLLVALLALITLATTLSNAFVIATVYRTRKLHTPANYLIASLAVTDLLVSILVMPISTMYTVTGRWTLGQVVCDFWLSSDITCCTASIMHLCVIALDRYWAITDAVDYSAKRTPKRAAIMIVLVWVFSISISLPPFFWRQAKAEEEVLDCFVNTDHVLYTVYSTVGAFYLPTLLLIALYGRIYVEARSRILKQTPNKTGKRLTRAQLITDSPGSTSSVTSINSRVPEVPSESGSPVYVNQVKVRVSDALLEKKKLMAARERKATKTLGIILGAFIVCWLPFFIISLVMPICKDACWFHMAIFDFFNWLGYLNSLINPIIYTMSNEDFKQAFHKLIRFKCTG
Description: as §2

A3 = biological target: T9, A3 (Homo sapiens, UniProt P0DMS8); test: follow-up functional study; format: cell-based; conditions: read-out: IC50 in follow-up functional studies
T9 sequence (P0DMS8 1-318): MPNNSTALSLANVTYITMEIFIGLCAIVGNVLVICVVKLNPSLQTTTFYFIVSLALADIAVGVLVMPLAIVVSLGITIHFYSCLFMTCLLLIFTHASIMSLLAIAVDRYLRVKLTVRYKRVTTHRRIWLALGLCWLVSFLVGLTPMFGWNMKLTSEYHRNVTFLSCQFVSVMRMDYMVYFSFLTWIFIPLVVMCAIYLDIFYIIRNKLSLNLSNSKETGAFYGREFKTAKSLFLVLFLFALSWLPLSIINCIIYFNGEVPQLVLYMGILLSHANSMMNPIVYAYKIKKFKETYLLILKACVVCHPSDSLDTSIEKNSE

rat whole blood = test: in vitro whole blood assay, IL-17A production; format: cell-based; conditions: rat whole blood diluted 1:4; read-out: IC50, inhibition of IL-17A production
Description: Two days later, IL-17A levels were measured in culture supernatant samples (see supplementary materials and methods).

Na+ channel (site 2) = test: Cerep panel; format: binding
Description: as §2

[4] = plasma (5-fold diluted, extrapolated), calculated for 5-fold dilution, read-out: concentration in 5-fold diluted plasma
[5] = plasma, mean ± SD, n=10, read-out: concentration in undiluted plasma

CC1CCCN1C(=O)c1nc(C(=O)NCC(C)(C)O)sc1-c1ccc(C(O)(C(F)(F)F)C(F)(F)F)c(Cl)c1Cl (centres unmarked) [JNJ-61803534]
AUC(0-t) ([1]; female): 142 µg·h/mL
Cmax ([1]; female): 7500 ng/mL
AUC(0-t) ([1]; male): 118 µg·h/mL
Cmax ([1]; male): 7250 ng/mL
NOAEL at 1 month ([1]; both sexes, 1 month oral): 3 mg/kg
tolerability (Beagle dogs; 10 mg/kg/day, weight loss and reduced food consumption in the fourth week, trend for increased ALP): clinically well tolerated during the first 3 weeks of treatment
tolerability (Beagle dogs; 30 mg/kg/day, intestinal mucosal hemorrhages and slight hepatocellular lipid vacuolation in some animals): exceeded the maximum tolerated dose
lymphocyte apoptosis in thymus (Beagle dogs; recovered after 1-month recovery period): dose-dependent lymphocyte apoptosis in thymus was observed
IC50 (ERα): > 1500 nM
inhibition at 1 µM (Y2 (h)): < 10%
inhibition at 10 µM (Y2 (h)): < 10%
inhibition at 1 µM (CCR1 (h)): < 10%
inhibition at 10 µM (CCR1 (h)): < 10%
inhibition of IFNγ production [2]: no inhibition; also recorded: did not inhibit
inhibition at 1 µM (VIP1 (h) (VPAC1)): < 10%
inhibition at 10 µM (VIP1 (h) (VPAC1)): < 10%
activity at 1 µM (MAPK1(h)): 91%
activity at 10 µM (MAPK1(h)): 112%
EC50 (5HT1A; agonist): > 12.5 µM
IC50 (5HT1A; antagonist): > 12.5 µM
EC50 (5HT2C; agonist): > 10 µM
IC50 (5HT2C; antagonist): > 10 µM
inhibition at 1 µM (CXCR2 (h) (IL-8B)): < 10%
inhibition at 10 µM (CXCR2 (h) (IL-8B)): < 10%
concentration at 1 h [3, 4]: 10 ± 2.8 µM
concentration at 2 h [3, 4]: 6.1 ± 3.1 µM
concentration at 4 h [3, 4]: 5 ± 1.7 µM
concentration at 7 h [3, 4]: 2300 ± 500 nM
concentration at 12 h [3, 4]: 860 ± 400 nM
concentration at 18 h [3, 4]: 240 ± 100 nM
concentration at 1 h [3, 5]: 31000 ng/mL and 49.8 µM
concentration at 2 h [3, 5]: 18900 ng/mL and 30.4 µM
concentration at 4 h [3, 5]: 15500 ng/mL and 24.9 µM
concentration at 7 h [3, 5]: 11.7 µM and 7280 ng/mL
concentration at 12 h [3, 5]: 4.3 µM and 2670 ng/mL
concentration at 18 h [3, 5]: 1.2 µM and 759 ng/mL
activity at 1 µM (TrkC(h)): 92%
activity at 10 µM (TrkC(h)): 88%
inhibition at 1 µM (5-HT1B): < 10%
inhibition at 10 µM (5-HT1B): 15.6%
IC50 (A3): > 12.5 µM
IC50 (rat whole blood): 120 ± 10 nM
% Inhibition at 1 µM (Na+ channel (site 2); 1 µM): 15%
% Inhibition at 10 µM (Na+ channel (site 2); 10 µM): 46%

From article PMC8155022 (Scientific Reports, 2021)
